Measured values: PubChem BioAssay AID330 (DTP/NCI, 2004)
Several values for one entry are separate records, joined by “and”; a condition that tells them apart may be missing. Identical values can stand only once. Inconclusive results and toxic doses are left out.

Tested on: P388 leukemia ip, CD2F1 mice, survival T/C
Experiment: NCI In Vivo Anticancer Drug Screen. Data for tumor model P388 Leukemia (intraperitoneal) in CD2F1 (CDF1) mice
Details: endpoint: median survival time, higher = longer survival
Outline: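 Mice carrying the transplanted tumor received test compound or vehicle. Survival was recorded in each group, and the value is the treated-group measurement divided by that of the vehicle-treated control group.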

[1] = dose: 50.0 mg/kg/injection, schedule: Q01DX005 (ip), vehicle: Klucel (hydroxypropylcellulose) (HPC)
[2] = dose: 100.0 mg/kg/injection, schedule: Q01DX005 (ip), vehicle: Klucel (hydroxypropylcellulose) (HPC)
[3] = dose: 200.0 mg/kg/injection, schedule: Q01DX005 (ip), vehicle: Klucel (hydroxypropylcellulose) (HPC)
[4] = dose: 200.0 mg/kg/injection, schedule: Q04DX003 (ip), vehicle: saline with Tween-80
[5] = dose: 400.0 mg/kg/injection, schedule: Q04DX003 (ip), vehicle: saline with Tween-80
[6] = dose: 60.0 mg/kg/injection, schedule: Q01DX005 (ip), vehicle: saline
[7] = dose: 120.0 mg/kg/injection, schedule: Q01DX005 (ip), vehicle: saline
[8] = dose: 50.0 mg/kg/injection, schedule: Q01DX009 (ip), vehicle: Klucel (hydroxypropylcellulose) (HPC)
[9] = dose: 100.0 mg/kg/injection, schedule: Q01DX009 (ip), vehicle: Klucel (hydroxypropylcellulose) (HPC)
[10] = dose: 200.0 mg/kg/injection, schedule: Q01DX009 (ip), vehicle: Klucel (hydroxypropylcellulose) (HPC)
[11] = dose: 60.0 mg/kg/injection, schedule: Q01DX005 (ip), vehicle: saline with Tween-80
[12] = dose: 120.0 mg/kg/injection, schedule: Q01DX005 (ip), vehicle: saline with Tween-80
[13] = dose: 240.0 mg/kg/injection, schedule: Q01DX005 (ip), vehicle: saline with Tween-80
[14] = dose: 50.0 mg/kg/injection, schedule: Q01DX005 (ip), vehicle: saline with Tween-80
[15] = dose: 100.0 mg/kg/injection, schedule: Q01DX005 (ip), vehicle: saline with Tween-80
[16] = dose: 200.0 mg/kg/injection, schedule: Q01DX005 (ip), vehicle: saline with Tween-80
[17] = dose: 50.0 mg/kg/injection, schedule: Q01DX009 (ip), vehicle: saline with Tween-80
[18] = dose: 100.0 mg/kg/injection, schedule: Q01DX009 (ip), vehicle: saline with Tween-80
[19] = dose: 100.0 mg/kg/injection, schedule: Q01DX001 (ip), vehicle: Klucel (hydroxypropylcellulose) (HPC)
[20] = dose: 200.0 mg/kg/injection, schedule: Q01DX001 (ip), vehicle: Klucel (hydroxypropylcellulose) (HPC)
[21] = dose: 400.0 mg/kg/injection, schedule: Q01DX001 (ip), vehicle: Klucel (hydroxypropylcellulose) (HPC)

In the case of `CCOP(=O)(Nc1c(Cl)cc2c(c1Cl)Cc1cc([N+](=O)[O-])ccc1-2)OCC`, the T/C [1] is reported as 92 % of control, the T/C [2] is reported as 88 % of control and the T/C [3] is reported as 88 % of control.
In the case of `CC(C)(C)SC(=O)C[Si](C)(C)C`, the T/C (dose: 50.0 mg/kg/injection, schedule: Q04DX003 (ip), vehicle: saline with Tween-80) is reported as 103 % of control and 105 % of control, the T/C (dose: 100.0 mg/kg/injection, schedule: Q04DX003 (ip), vehicle: saline with Tween-80) is reported as 107 % of control and 94 % of control and the T/C [4] is reported as 111 % of control and 118 % of control. For the same compound, the T/C [5] was 110 % of control.
With `CC(CN(C)C)C(=O)/C=C/c1ccc(F)c(F)c1` (stereo not drawn) the T/C [6] was 100 % of control and 103 % of control and the T/C [7] was 116 % of control and 124 % of control.
For `Nc1ccccc1SSc1ccccc1C(=O)O`, the T/C [1] was 112 % of control and the T/C [2] was 112 % of control.
`COc1cc2c(cc1OC)-c1c3c(cc4c1[C@H](C2)N(C)CC4)OCO3` was tested, and the T/C [4] was 110 % of control and the T/C [5] was 110 % of control.
With `O=c1ccn(C2OC(CO)C(O)C2Cl)c(=O)[nH]1` (stereo not drawn) the T/C (dose: 6.25 mg/kg/injection, schedule: Q01DX009 (ip), vehicle: Klucel (hydroxypropylcellulose) (HPC)) was 101 % of control, the T/C (dose: 12.5 mg/kg/injection, schedule: Q01DX009 (ip), vehicle: Klucel (hydroxypropylcellulose) (HPC)) was 104 % of control and the T/C (dose: 25.0 mg/kg/injection, schedule: Q01DX009 (ip), vehicle: Klucel (hydroxypropylcellulose) (HPC)) was 109 % of control. For the same compound, the T/C [8] was 105 % of control, the T/C [9] was 101 % of control and the T/C [10] was 104 % of control.
With `COC(=O)C(C)Oc1ccc(OC#N)cc1` (stereo not drawn) the T/C [11] was 102 % of control, the T/C [12] was 101 % of control and the T/C [13] was 93 % of control.
`Clc1ccc(-c2csc3sc4ccccc4[n+]23)cc1` was tested, and the T/C [14] was 111 % of control, the T/C [15] was 118 % of control and the T/C [16] was 113 % of control.
`c1ccc2[nH]ncc2c1` was tested, and the T/C [17] was 96 % of control, the T/C [18] was 102 % of control and the T/C (dose: 200.0 mg/kg/injection, schedule: Q01DX009 (ip), vehicle: saline with Tween-80) was 100 % of control.
In the case of `CN(C)CN1C(=O)S/C(=C2\C(=O)N(C)c3ccc(Br)cc32)C1=O`, the T/C [19] is reported as 101 % of control, the T/C [20] is reported as 95 % of control and the T/C [21] is reported as 97 % of control.
In the case of `CC(=O)OC1C2OC3C=C(C)CCC3(CO)C(C)(C1OC(C)=O)C21CO1` (stereo not drawn), the T/C (dose: 0.5 mg/kg/injection, schedule: Q01DX009 (ip), vehicle: saline) is reported as 108 % of control, the T/C (dose: 1.0 mg/kg/injection, schedule: Q01DX009 (ip), vehicle: saline) is reported as 100 % of control and the T/C (dose: 2.0 mg/kg/injection, schedule: Q01DX009 (ip), vehicle: saline) is reported as 106 % of control.
`COCC12CN(C)C3C4C(OC)C1C3(C(OC)CC2O)C1CC2(O)C(OC)C(O)C4(OC(C)=O)C1C2OC(=O)c1ccccc1` (stereo not drawn) was tested, and the T/C (dose: 0.09 mg/kg/injection, schedule: Q01DX005 (ip), vehicle: Klucel (hydroxypropylcellulose) (HPC)) was 100 % of control, the T/C (dose: 12.0 micrograms/kg/injection, schedule: Q01DX005 (ip), vehicle: Klucel (hydroxypropylcellulose) (HPC)) was 91 % of control and the T/C (dose: 24.0 micrograms/kg/injection, schedule: Q01DX005 (ip), vehicle: Klucel (hydroxypropylcellulose) (HPC)) was 98 % of control and 101 % of control. For the same compound, the T/C (dose: 48.0 micrograms/kg/injection, schedule: Q01DX005 (ip), vehicle: Klucel (hydroxypropylcellulose) (HPC)) was 100 % of control and 101 % of control.
For `CSc1nc(N)c(C(=O)N(c2ccccc2)c2ccccc2)s1`, the T/C [8] was 100 % of control, the T/C [9] was 108 % of control and the T/C [10] was 98 % of control.
`COc1cccc2c1C(=O)c1c(O)c3c(c(O)c1C2=O)C[C@@](O)(C(=O)CO)C[C@@H]3OC1CC(N)CC(C)O1` (stereo partly drawn) was tested, and the T/C (dose: 0.1 mg/kg/injection, schedule: Q01DX009 (ip), vehicle: water) was 157 % of control, the T/C (dose: 0.2 mg/kg/injection, schedule: Q01DX009 (ip), vehicle: water) was 154 % of control and 157 % of control and the T/C (dose: 0.32 mg/kg/injection, schedule: Q01DX009 (ip), vehicle: saline) was 166 % of control. For the same compound, the T/C (dose: 0.39 mg/kg/injection, schedule: Q01DX009 (ip), vehicle: water) was 173 % of control and 186 % of control, the T/C (dose: 0.54 mg/kg/injection, schedule: Q01DX009 (ip), vehicle: saline) was 191 % of control and the T/C (dose: 0.78 mg/kg/injection, schedule: Q01DX009 (ip), vehicle: water) was 185 % of control and 280 % of control. For the same compound, the T/C (dose: 0.9 mg/kg/injection, schedule: Q01DX009 (ip), vehicle: saline) was 314 % of control, the T/C (dose: 1.5 mg/kg/injection, schedule: Q01DX009 (ip), vehicle: saline) was 201 % of control and the T/C (dose: 1.56 mg/kg/injection, schedule: Q01DX009 (ip), vehicle: water) was 157 % of control and 226 % of control and 89 % of control. For the same compound, the T/C (dose: 1.8 mg/kg/injection, schedule: Q04DX003 (ip), vehicle: saline) was 200 % of control, the T/C (dose: 3.0 mg/kg/injection, schedule: Q04DX003 (ip), vehicle: saline) was 154 % of control and 275 % of control and the T/C (dose: 3.13 mg/kg/injection, schedule: Q04DX003 (ip), vehicle: water) was 158 % of control. For the same compound, the T/C (dose: 12.5 mg/kg/injection, schedule: Q04DX003 (ip), vehicle: water) was 103 % of control.
For `c1ccc(C(Sc2ncnc3nc[nH]c23)c2ccccc2)cc1`, the T/C (dose: 50.0 mg/kg/injection, schedule: Q01DX009 (ip), vehicle: saline) was 102 % of control, the T/C (dose: 100.0 mg/kg/injection, schedule: Q01DX009 (ip), vehicle: saline) was 102 % of control and the T/C (dose: 200.0 mg/kg/injection, schedule: Q01DX009 (ip), vehicle: saline) was 111 % of control.
With `Cc1cc(C)nc(NS(=O)(=O)c2ccc(N=NC3=C(O)C(c4ccccc4)N(c4ccccc4)C3=O)cc2)n1` (stereo not drawn) the T/C [6] was 93 % of control and the T/C [7] was 86 % of control.
`COC(=O)N1CCCc2cc3c(cc(OC)c(OC)c3c3[nH]c4ccccc4c23)CC1` was tested, and the T/C (dose: 50.0 mg/kg/injection, schedule: Q01DX005 (ip), vehicle: Klucel + Tween-80) was 100 % of control, the T/C (dose: 100.0 mg/kg/injection, schedule: Q01DX005 (ip), vehicle: Klucel + Tween-80) was 95 % of control and the T/C (dose: 200.0 mg/kg/injection, schedule: Q01DX005 (ip), vehicle: Klucel + Tween-80) was 91 % of control.
`S=P(Oc1cc(Cl)c(Cl)cc1Cl)(N1CCN(c2cccc(Cl)c2)CC1)N1CCN(c2cccc(Cl)c2)CC1` was tested, and the T/C [14] was 97 % of control, the T/C [15] was 88 % of control and the T/C [16] was 86 % of control.
In the case of `CNC(=O)NCc1cccnc1`, the T/C [6] is reported as 107 % of control, the T/C [7] is reported as 103 % of control and the T/C (dose: 240.0 mg/kg/injection, schedule: Q01DX005 (ip), vehicle: saline) is reported as 99 % of control.
`O=C(O)c1ccc(=O)oc1` was tested, and the T/C (dose: 12.5 mg/kg/injection, schedule: Q01DX009 (ip), vehicle: saline with Tween-80) was 98 % of control, the T/C (dose: 25.0 mg/kg/injection, schedule: Q01DX009 (ip), vehicle: saline with Tween-80) was 94 % of control and the T/C [17] was 116 % of control. For the same compound, the T/C [18] was 116 % of control.
In the case of `C#CCSC1=NS(=O)(=O)c2ccccc21`, the T/C (dose: 7.5 mg/kg/injection, schedule: Q01DX005 (ip), vehicle: saline with Tween-80) is reported as 115 % of control, the T/C (dose: 15.0 mg/kg/injection, schedule: Q01DX005 (ip), vehicle: saline with Tween-80) is reported as 115 % of control and the T/C (dose: 30.0 mg/kg/injection, schedule: Q01DX005 (ip), vehicle: saline with Tween-80) is reported as 98 % of control and 115 % of control. The T/C [11] was 106 % of control.
`O=C1c2ccccc2C(=O)C2C3C=CC(CC3)C12` (stereo not drawn) was tested, and the T/C [1] was 105 % of control, the T/C [2] was 102 % of control and the T/C [3] was 99 % of control.
`O=[N+]([O-])c1cccc(/C=N/NS(=O)(=O)c2ccc(F)cc2)c1O` was tested, and the T/C [11] was 95 % of control, the T/C [12] was 93 % of control and the T/C [13] was 106 % of control.
`NC(=O)CCC1CC(=O)c2ccccc2C1` (stereo not drawn) was tested, and the T/C [19] was 94 % of control, the T/C [20] was 108 % of control and the T/C [21] was 92 % of control.
With `CN1C(=O)/C(=C\c2ccccc2)N=C(c2ccccc2)c2cc(Cl)ccc21` the T/C (dose: 25.0 mg/kg/injection, schedule: Q01DX005 (ip), vehicle: saline with Tween-80) was 110 % of control, the T/C [14] was 96 % of control and the T/C [15] was 91 % of control.
